Literature values as cited in patent US20190233345A1, “AGRICULTURAL SYSTEMS, COMPOSITIONS AND METHODS FOR INCREASING CROP YIELD” (E. I. DU PONT DE NEMOURS AND COMPANY, priority 2016, published 2019).

How the values were obtained:
[1] = tested on: lepidopteran pests of soy (including Army Worm; Spodoptera frugiperda and Velvet Bean Caterpillar (Anticarsia gemmatalis))
[2] = tested on: lepidopteran pests of corn (including Army Worm; Spodoptera frugiperda)

Row | SMILES | LD-50 [1] | LD-50 [2]
1 | CNC(=O)c1cc(C#N)cc(C)c1NC(=O)c1cc(Br)nn1-c1ncccc1Cl [HGW, cyantraniliprole] | 50-60 ppb | 50-60 ppb
2 | CNC(=O)c1cc(Cl)cc(C)c1NC(=O)c1cc(Br)nn1-c1ncccc1Cl [Prototype E2Y, chlorantraniliprole] | 15-20 ppb | 15-20 ppb
